Laboratory results as given in patent EP4755885A1 (Shanghai Hansoh Biomedical Co., Ltd., priority 2023, dated 2025).

Assays:
human GLP-1 receptor = target: T1, human GLP-1 receptor (Homo sapiens, UniProt P43220); experiment: cAMP production in cell line stably transformed with human GLP1 receptor, 2 h co-incubation (HTRF); format: cell-based; conditions: CHO-K1/GLP-1R/CRE-luc cells, stimulation for 2 h, read-out: EC50
T1 construct: expressed in transfected cells
Experimental: The purpose of this assay example is to test the ability of the compound to activate the human GLP-1 receptor on cell surface. The EC50 for stimulated cAMP production after activation characterizes the ability of the compound to activate the human GLP-1 receptor.
In this experiment, the compound and cells were co-incubated for 2 h.
Frozen cell line CHO-K1/GLP-1R/CRE-luc stably transformed with human GLP1 receptor was removed from a liquid nitrogen tank, and was placed in a 37°C water bath for rapid thawing. The cells were resuspended in DMEM/F12 medium, and after centrifugation, were washed once. The cells were resuspended in an experimental buffer, i.e., DMEM/F12 medium containing 0.1% casein. After centrifugation, cell density was adjusted using the experimental buffer. The cells were plated onto a 384-well plate at a density of 1500 cells/5 µL/well. Then, each well was added with 2.5 µL of IBMX working solution prepared with the buffer, the final concentration of IBMX being 0.5 mM, and 2.5 µL of a serially diluted compound sample (starting from […], 3-fold dilution, 12 concentrations). The plate was centrifuged at 1000 rpm for 1 min, and was stood for incubation at 37°C for 2 h. Determination was performed using the Cisbio cAMP - Gs Dynamic kit. cAMP-d2 and anti-cAMP-Eu3+-Cryptate were diluted 18-fold and 20-fold respectively with cAMP Lysis & Detection Buffer, and were respectively mixed homogeneously. Each well was added with 5 µL of diluted cAMP-d2 solution, and the plate was centrifuged at 1000 rpm for 1 min, and shaken for 30 seconds for homogeneous mixing. Then, each well was added with 5 µL of diluted anti-cAMP-Eu3+-Cryptate solution, and the plate was centrifuged at 1000 rpm for 1 min and was incubated in the dark at room temperature for 1 h. HTRF signals were read using the Biotek Synergy H1 microplate reader, the excitation wavelength being 320 nm and the emission wavelengths being 620 nm and 665 nm.
The signal-to-signal ratio was calculated (665 nm/620 nm * 10,000). Nonlinear fitting between the signal-to-signal ratio and the sample concentration was performed in GraphPad Prism 10 using a four-parameter equation to obtain the EC50 value.

[1] = Pharmacokinetic evaluation in beagles, oral administration; format: in vivo; conditions: p.o. 2 mg/kg, plasma; for MRT inf: read-out: MRT 0-∞
Experimental: Beagles were used as test animals to study the pharmacokinetic behavior of the compound of the present invention, administered orally at a dose of 2 mg/kg, in beagles (plasma).
Beagles, 3 per group, male.
(§1) Preparation of drug for oral administration: 10%PEG400/10%PG/80% glycine buffer (100 mM glycine, 64 Mm NaOH, […]) buffer.
Single PK: The compound of the present invention was weighed into a 100 mL glass bottle, and the solution was added. The pH was first adjusted with 1 M NaOH until the compound dissolves to obtain a clear solution, and then the pH was readjusted to pH 9.0-9.5 with 1 M HCl. Sonication was performed for 10 min to obtain a colorless clear solution having a concentration of 0.4 mg/mL.
Three beagles, male, respectively administered p.o. after fasting overnight, at a dose of 2 mg/kg and in an administration volume of 5 mL/kg.
Blood collection: 0.3 mL of blood was collected from the forelimb vein of the beagles before administration and at 0.25, 0.5, 1, 2, 4, 6, 8, and 24 h after administration. The blood samples were placed in EDTA-K2 anticoagulant tubes and centrifuged at 6000 rpm at 4°C for 6 min to separate plasma, which was stored at -80°C. The beagles were fed 4 h after administration.
(§2) • 1) 40 µL of a plasma sample was added with 160 µL of acetonitrile for precipitation, and after mixing, the mixture was centrifuged at 3500 × g for 5 to 20 min. • 2) The supernatant solution after treatment was taken for LC/MS/MS analysis of the concentration of the test compound. The LC/MS/MS analysis instrument was AB Sciex API 4000 Qtrap.
• Liquid phase condition: Shimadzu LC-20AD pump • Chromatographic column: Agilent ZORBAX XDB-C18 (50×2.1 mm, 3.5 µm) Mobile phase: Solution A was 0.1% formic acid aqueous solution, and Solution B was acetonitrile • Flow rate: 0.4 mL/min • Elution time: 0-4.0 min, the eluent was as follows: […]

[2] = Pharmacokinetic evaluation in mice, oral administration; format: in vivo, Balb/c mice; conditions: p.o. 5 mg/kg, plasma; for AUC(0-inf) / AUC(0-t) / Cmax / Tmax / MRT inf: mouse, in vivo, po; for MRT inf: read-out: MRT 0-∞
Experimental: Balb/c mice were used as test animals to study the pharmacokinetic behavior of the compound of the present invention in mice (plasma) at a dose of 5 mg/kg administered orally and 1 mg/kg administered intravenously.
Balb/c mice, 3 per group, male.
as §1
10 ml of PEG400, 10 ml of PG, and 80 ml of (100 mM glycine, 64 Mm NaOH, pH = 9) were measured into a 100 ml volumetric flask, vortexed, mixed homogeneously, and sonicated to obtain a clear solution.
Single PK: An example compound was weighed into a 4 mL glass bottle. The solution was added, and sonication was performed for 10 min to obtain a colorless clear solution having a concentration of 0.5 mg/mL.
The solution was added, and sonication was performed for 10 min to obtain a colorless clear solution having a concentration of 0.5 mg/mL.
Three Balb/c mice, male, respectively administered p.o. after fasting overnight, at a dose of 5 mg/kg and in an administration volume of 10 mL/kg.
The blood samples were placed in EDTA-K2 anticoagulant tubes and centrifuged at 6000 rpm at 4°C for 6 min to separate plasma, which was stored at -80°C. The mice were fed 4 h after administration.
as §2
• Liquid phase condition: Shimadzu LC-20AD pump • Chromatographic column: Agilent ZORBAX XDB-C18 (50×2.1 mm, 3.5 µm) Mobile phase: Solution A was 0.1% formic acid aqueous solution, and Solution B was acetonitrile • Flow rate: 0.4 mL/min • Elution time: 0-4.0 min, the eluent was as follows:
Main pharmacokinetic parameters were calculated using WinNonlin 6.1.

[3] = not marked single PK (cassette PK)

T1 sequence (P43220 24-463): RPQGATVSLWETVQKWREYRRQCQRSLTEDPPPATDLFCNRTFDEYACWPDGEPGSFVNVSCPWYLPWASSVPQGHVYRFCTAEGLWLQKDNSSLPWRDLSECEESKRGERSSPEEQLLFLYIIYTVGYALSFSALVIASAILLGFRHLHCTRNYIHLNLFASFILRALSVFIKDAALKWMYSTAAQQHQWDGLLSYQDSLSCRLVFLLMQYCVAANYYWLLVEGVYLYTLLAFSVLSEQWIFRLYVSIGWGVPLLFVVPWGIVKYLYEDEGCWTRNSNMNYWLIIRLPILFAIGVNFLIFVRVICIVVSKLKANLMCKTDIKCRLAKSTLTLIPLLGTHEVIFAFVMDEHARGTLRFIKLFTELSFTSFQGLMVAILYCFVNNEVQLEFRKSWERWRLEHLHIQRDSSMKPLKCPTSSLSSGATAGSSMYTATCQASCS

For “3-((3R,4r,5 S)-4-(5-((S)-2,2-dimethyltetrahydro-2H-pyran-4-yl)-2-((S)-3-(3-(4-fluoro-1-(methyl-d3)-1H-indazol-5-yl)-2-carbonyl-2,3-dihydro-1H-imidazol-1-yl)-2-(4-fluoro-3,5-dimethylbenzene)-4-methyl-4,5,6,7-tetrahydro-2H-pyrazolo[4,3-c]pyridine-5-carbonyl)-1H-indol-1-yl)tetrahydro-2H-pyran-4-yl)-1,2,4-oxadiazol-5(4H)-one [Example 338]”, the EC50 (human GLP-1 receptor) was 0.023 nM, the “AUC 0-∞” value [1] was 21417 ng·h/mL and the “AUC(0-t)” value [1] was 20922 ng·h/mL. The Cmax [1] was 3915 ng/mL, the “MRT 0-∞” value [1] was 5.3 h and the Tmax [1] was 1.3 h. It also gave a t1/2 [1] of 4.4 h.
Work on `C[C@H]1c2c(nn(-c3ccc(F)c(C4CC4)c3)c2-n2ccn(-c3ccc4c(c3)C3(CC3)C(=O)N4C)c2=O)CCN1C(=O)c1cc2cc([C@H]3CCOC(C)(C)C3)ccc2n1[C@@]1(c2noc(=O)[nH]2)C[C@@H]1C` [Example 32] yielded an AUC(0-inf) [2, 3] of 9320 ng·h/mL, an AUC(0-t) [2, 3] of 8990 ng·h/mL and a Cmax [2, 3] of 1040 ng/mL. For the same compound, the Tmax [2, 3] was 1 h, the MRT inf [2, 3] was 6.7 h and the tl/2 [2, 3] was 5.3 h.
`Cc1cc(-n2nc3c(c2-n2ccn(-c4cc5c6c(c4)CCC(=O)N6CCC5)c2=O)[C@H](C)N(C(=O)c2cc4cc([C@H]5CCOC(C)(C)C5)ccc4n2[C@@]2(c4noc(=O)[nH]4)C[C@@H]2C)CC3)cc(C)c1F` [Example 34] showed an EC50 (human GLP-1 receptor) of 0.11 nM, an AUC(0-inf) ([2]; single PK) of 13300 ng·h/mL and an AUC(0-t) ([2]; single PK) of 12100 ng·h/mL. It also gave a Cmax ([2]; single PK) of 1510 ng/mL, a Tmax ([2]; single PK) of 1 h and an MRT inf ([2]; single PK) of 9 h. For the same compound, the tl/2 ([2]; single PK) was 7.8 h, the AUC(0-inf) ([1]; dog, po) was 9390 ng·h/mL and the AUC(0-t) at 24 h ([1]; dog, po) was 9090 ng·h/mL. The half-life ([1]; dog, po) was 5.1 h, the Cmax ([1]; dog, po, read-out: Cmax) was 1330 ng/mL and the MRT inf ([1]; dog, po) was 5.7 h. For the same compound, the Tmax ([1]; dog, po, read-out: tmax) was 1.7 h.
`Cc1cc(-n2nc3c(c2-n2ccn(-c4cc5c6c(c4)OCCN6C(=O)CC5)c2=O)[C@H](C)N(C(=O)c2cc4cc([C@H]5CCOC(C)(C)C5)ccc4n2[C@@]2(c4noc(=O)[nH]4)C[C@@H]2C)CC3)cc(C)c1F` [Example 43] gave an EC50 (human GLP-1 receptor) of 0.06 nM.
For `Cc1cc(-n2nc3c(c2-n2ccn(-c4ccc5c(cnn5C5CC5)c4F)c2=O)[C@H](C)N(C(=O)c2cc4cc([C@H]5CCOC(C)(C)C5)ccc4n2[C@@]2(c4noc(=O)[nH]4)C[C@@H]2C)CC3)cc(C)c1C#N` [Example 49], the EC50 (human GLP-1 receptor) was 0.032 nM, the AUC(0-inf) ([2]; single PK) was 16600 ng·h/mL and the AUC(0-t) ([2]; single PK) was 15700 ng·h/mL. For the same compound, the Cmax ([2]; single PK) was 2430 ng/mL, the Tmax ([2]; single PK) was 1 h and the MRT inf ([2]; single PK) was 7.1 h. It also gave a tl/2 ([2]; single PK) of 6.5 h.
With `Cc1cc(-n2nc3c(c2-n2ccn(-c4ccc5c(cnn5C5CC5)c4F)c2=O)[C@H](C)N(C(=O)c2cc4cc([C@H]5CCOC(C)(C)C5)ccc4n2[C@@]2(c4noc(=O)[nH]4)C[C@@H]2COC(F)F)CC3)cc(C)c1F` [Example 68] the EC50 (human GLP-1 receptor) was 0.016 nM.
`C#C[C@H]1C[C@]1(c1noc(=O)[nH]1)n1c(C(=O)N2CCc3nn(-c4cc(C)c(F)c(C)c4)c(-n4ccn(-c5cc6c7c(c5)CCC(=O)N7CCC6)c4=O)c3[C@@H]2C)cc2cc([C@H]3CCOC(C)(C)C3)ccc21` [Example 174] showed an EC50 (human GLP-1 receptor) of 0.15 nM.
For `Cc1cc(-n2nc3c(c2-n2ccn(-c4ccc5c(cnn5C5CC5)c4F)c2=O)[C@H](C)N(C(=O)c2cc4cc([C@H]5CCOC(C)(C)C5)ccc4n2[C@@]2(c4noc(=O)[nH]4)C[C@@H]2COc2ccccc2)CC3)cc(C)c1F` [Example 187], the EC50 (human GLP-1 receptor) was 0.08 nM.
`Cc1cc(-n2nc3c(c2-n2ccn(-c4ccc5c(cnn5C5CC5)c4F)c2=O)[C@H](C)N(C(=O)c2cc4cc([C@H]5CCOC(C)(C)C5)ccc4n2[C@@]2(c4noc(=O)[nH]4)C[C@@H]2C#N)CC3)cc(C)c1F` [Example 190] gave an EC50 (human GLP-1 receptor) of 0.04 nM.
Compound `[2H]C([2H])(OC1CC1)[C@H]1C[C@]1(c1noc(=O)[nH]1)n1c(C(=O)N2CCc3nn(-c4cc(C)c(F)c(C)c4)c(-n4ccn(-c5ccc6c(cnn6C6CC6)c5F)c4=O)c3[C@@H]2C)cc2cc([C@H]3CCOC(C)(C)C3)ccc21` [Example 194] has an EC50 (human GLP-1 receptor) of 0.009 nM, an AUC(0-inf) [2, 3] of 32200 ng·h/mL and an AUC(0-t) [2, 3] of 19100 ng·h/mL. It also gave a Cmax [2, 3] of 1840 ng/mL, a Tmax [2, 3] of 2.7 h and an MRT inf [2, 3] of 26.6 h. For the same compound, the tl/2 [2, 3] was 19.9 h, the AUC(0-inf) ([1]; dog, po) was 43700 ng·h/mL and the AUC(0-t) at 24 h ([1]; dog, po) was 40100 ng·h/mL. For the same compound, the half-life ([1]; dog, po) was 7.6 h, the Cmax ([1]; dog, po, read-out: Cmax) was 5830 ng/mL and the MRT inf ([1]; dog, po) was 8.3 h. For the same compound, the Tmax ([1]; dog, po, read-out: tmax) was 1 h.
`Cc1cc(-n2nc3c(c2-n2ccn(-c4ccc5c(cnn5C5CC5)c4F)c2=O)[C@H](C)N(C(=O)c2cc4cc([C@H]5CCOC(C)(C)C5)ccc4n2[C@@]2(c4noc(=O)[nH]4)C[C@@H]2COC2CC2)CC3)cc(C)c1C#N` [Example 195] gave an EC50 (human GLP-1 receptor) of 0.035 nM.
With `Cc1cc(-n2nc3c(c2-n2ccn(-c4cc5c6c(c4)CCC(=O)N6CCC5)c2=O)[C@H](C)N(C(=O)c2cc4cc([C@H]5CCOC(C)(C)C5)ccc4n2[C@@]2(c4noc(=O)[nH]4)C[C@@H]2COC2CC2)CC3)cc(C)c1F` [Example 200] the EC50 (human GLP-1 receptor) was 0.09 nM.
